Experimental findings from US5118882A, “Streptenols from streptomycetes, and the preparation and use thereof” (Hoechst Aktiengesellschaft, priority 1989, dated 1992) are described below.

Molecules are shown by their SMILES.

The test has as its system HEP-G2 cells. The experiment in a line: Inhibition of cholesterol biosynthesis (14C-acetate incorporation into cholesterol). Particulars: Homo sapiens, HepG2; HEP-G2 monolayers, 1 h preincubation, 3 h with 14C-sodium acetate; read-out: IC50 value (concentration at which 50% of the cholesterol synthesis was inhibited). It is filed as cell-based. The method, then: 4. Inhibition of cholesterol biosynthesis
The biological effectiveness of the compound of the formula I was determined using cell cultures of cell line HEP-G2. For this purpose, monolayers of HEP-G2 cells were preincubated for one hour in a lipo-protein-free culture medium containing appropriate concentrations of the test substances; after the ^14 C-labeled precursor ^14 C-(sodium acetate) has been added, incubation is continued for three hours. After this, a portion of the cells are subjected to alkaline hydrolysis, an internal standard of ^3 H-cholesterol having been added previously. The lipids of the hydrolysed cells are extracted using chloroform/methanol. Support-cholesterol is added, and this lipid mixture is then separated by means of preparative thin-layer chromatography; the cholesterol band is made visible and then isolated, and the amount ^14 C-cholesterol which has been formed from the ^14 C-precursor is determined scintigraphically. […] In aliquots of the cell culture, the intactness of the cell culture and lack of damage to cells by the influence of preparations is assessed morphologically (in an optical microscope) and biochemically by determining the amount of lactate dehydrogenase in the incubation medium. […]

As for `CC[C@H](C)C(=O)O[C@H]1C[C@@H](C)C=C2C=C[C@H](C)[C@H](CC[C@@H]3C[C@@H](O)CC(=O)O3)[C@H]21` [lovastatin], the IC50 is 20 nM.
